In PubChem BioAssay AID330 (DTP/NCI, 2004):
Values joined by “and” are separate entries in the source; they are usually repeats but may differ in a detail not shown here. Equal values may be shown once. Inconclusive results and toxic doses are left out.

System: P388 leukemia ip, CD2F1 mice, survival T/C
Test: NCI In Vivo Anticancer Drug Screen. Data for tumor model P388 Leukemia (intraperitoneal) in CD2F1 (CDF1) mice
Conditions: endpoint: median survival time, higher = longer survival
Outline: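 Mice carrying the transplanted tumor received test compound or vehicle. Survival was recorded in each group, and the value is the treated-group measurement divided by that of the vehicle-treated control group.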

[1] = dose: 60.0 mg/kg/injection, schedule: Q01DX005 (ip), vehicle: Klucel (hydroxypropylcellulose) (HPC)
[2] = dose: 120.0 mg/kg/injection, schedule: Q01DX005 (ip), vehicle: Klucel (hydroxypropylcellulose) (HPC)
[3] = dose: 240.0 mg/kg/injection, schedule: Q01DX005 (ip), vehicle: Klucel (hydroxypropylcellulose) (HPC)
[4] = dose: 100.0 mg/kg/injection, schedule: Q01DX009 (ip), vehicle: saline with Tween-80
[5] = dose: 200.0 mg/kg/injection, schedule: Q01DX009 (ip), vehicle: saline with Tween-80
[6] = dose: 400.0 mg/kg/injection, schedule: Q01DX009 (ip), vehicle: saline with Tween-80
[7] = dose: 60.0 mg/kg/injection, schedule: Q01DX005 (ip), vehicle: saline with Tween-80
[8] = dose: 120.0 mg/kg/injection, schedule: Q01DX005 (ip), vehicle: saline with Tween-80
[9] = dose: 240.0 mg/kg/injection, schedule: Q01DX005 (ip), vehicle: saline with Tween-80
[10] = dose: 50.0 mg/kg/injection, schedule: Q01DX009 (ip), vehicle: saline with Tween-80

**Q.** How did the T/C [1] turn out when `O=C(NC1COB(c2ccc(Br)cc2)OC1c1ccc([N+](=O)[O-])cc1)C(Cl)Cl` (stereo unspecified) was run?
**A.** The T/C was 102 % of control.

**Q.** And the T/C [2]?
**A.** The T/C was 102 % of control.

**Q.** And the T/C [3]?
**A.** Its T/C is 103 % of control.

**Q.** Which results are given for `CC(=O)OC(OC(C)=O)c1ccc([N+](=O)[O-])s1`?
**A.** T/C (dose: 50.0 mg/kg/injection, schedule: Q01DX009 (ip), vehicle: Klucel (hydroxypropylcellulose) (HPC)): 109 % of control; T/C (dose: 100.0 mg/kg/injection, schedule: Q01DX009 (ip), vehicle: Klucel (hydroxypropylcellulose) (HPC)): 87 % of control

**Q.** Which T/C (dose: 25.0 mg/kg/injection, schedule: Q01DX009 (ip), vehicle: saline sonified) does the source give for `OCC1OC(n2cnc3c(=S)nc[nH]c32)C(O)C1O` (stereo unspecified) here?
**A.** The T/C was 95 % of control.

**Q.** What about the T/C (dose: 50.0 mg/kg/injection, schedule: Q01DX009 (ip), vehicle: saline sonified) of the same molecule?
**A.** The T/C was 100 % of control.

**Q.** What about the T/C (dose: 100.0 mg/kg/injection, schedule: Q01DX009 (ip), vehicle: saline sonified) of the same molecule?
**A.** The T/C was 100 % of control.

**Q.** And the T/C [4]?
**A.** Its T/C is 100 % of control.

**Q.** What about the T/C [5] of the same molecule?
**A.** The T/C was 100 % of control.

**Q.** What about the T/C [6] of the same molecule?
**A.** Its T/C is 95 % of control.

**Q.** And the T/C (dose: 800.0 mg/kg/injection, schedule: Q01DX009 (ip), vehicle: saline with Tween-80)?
**A.** Its T/C is 109 % of control.

**Q.** With `CNc1nc(Cl)cc2onc(C)c12` as the molecule, how does the T/C [7] read?
**A.** Its T/C is 94 % of control.

**Q.** What about the T/C [8] of the same molecule?
**A.** The T/C was 100 % of control.

**Q.** And the T/C [9]?
**A.** The T/C was 103 % of control.

**Q.** Which results are given for `CC1(C)CC(C)(C)C2(OC3=C([Se]2)C(C)(C)CC(C)(C)C3=O)C(=O)C1=O` (stereo unspecified)?
**A.** T/C [10]: 100 % of control; T/C [4]: 118 % of control; T/C [5]: 117 % of control

**Q.** Which T/C [10] does the source give for `CC(=O)c1ccc(OCc2ccccc2)c(OCc2ccccc2)c1` here?
**A.** The T/C was 115 % of control.

**Q.** And the T/C [4]?
**A.** Its T/C is 106 % of control.

**Q.** And the T/C [5]?
**A.** Its T/C is 95 % of control.

**Q.** And the T/C [6]?
**A.** Its T/C is 93 % of control.

**Q.** `CCOc1ccc(-n2c(-c3ccc(F)cc3)c(N=Nc3ccccc3)sc2=N)cc1` was tested. Which T/C [1] did it give?
**A.** The T/C was 96 % of control.

**Q.** And the T/C [2]?
**A.** The T/C was 102 % of control.

**Q.** What about the T/C [3] of the same molecule?
**A.** Its T/C is 108 % of control.

**Q.** `C[C@H]1CC[C@@H]2O[C@@]23C(=O)OC2OC(C)(C)[C@@H]([C@H]2O)[C@]13C` was tested. Which T/C (dose: 50.0 mg/kg/injection, schedule: Q01DX005 (ip), vehicle: Klucel (hydroxypropylcellulose) (HPC)) did it give?
**A.** Its T/C is 102 % of control.

**Q.** What about the T/C (dose: 100.0 mg/kg/injection, schedule: Q01DX005 (ip), vehicle: Klucel (hydroxypropylcellulose) (HPC)) of the same molecule?
**A.** The T/C was 96 % of control.

**Q.** And the T/C (dose: 200.0 mg/kg/injection, schedule: Q01DX005 (ip), vehicle: Klucel (hydroxypropylcellulose) (HPC))?
**A.** The T/C was 107 % of control.

**Q.** With `O=C1CCSC(=S)N1c1cc(Cl)c(Cl)cc1Cl` as the molecule, how does the T/C (dose: 50.0 mg/kg/injection, schedule: Q01DX009 (ip), vehicle: suspension in saline) read?
**A.** Its T/C is 106 % of control.

**Q.** And the T/C (dose: 100.0 mg/kg/injection, schedule: Q01DX009 (ip), vehicle: suspension in saline)?
**A.** The T/C was 108 % of control.

**Q.** And the T/C (dose: 200.0 mg/kg/injection, schedule: Q01DX009 (ip), vehicle: suspension in saline)?
**A.** The T/C was 109 % of control.

**Q.** For `O=C(CC1(O)C(=O)N(CN2CCCCC2)c2ccccc21)c1ccccc1` (stereo unspecified), which T/C [10] is on record?
**A.** Its T/C is 110 % of control.

**Q.** And the T/C [4]?
**A.** Its T/C is 97 % of control.

**Q.** What does the source list for `CC1(C)CC(=O)C2C(C1)OC1CC(C)(C)CC(=O)C1C2c1ccc2c(c1)OCO2` (stereo unspecified)?
**A.** T/C [7]: 104 % of control; T/C [8]: 100 % of control; T/C [9]: 97 % of control

**Q.** Which T/C (dose: 12.5 mg/kg/injection, schedule: Q01DX005 (ip), vehicle: saline with Tween-80) does the source give for `CN=C(NC)c1ccc(NC(=O)Nc2cccc(NC(=O)Nc3ccc(C(=NC)NC)cc3)c2)cc1` here?
**A.** The T/C was 160 % of control and 177 % of control.

**Q.** What about the T/C (dose: 25.0 mg/kg/injection, schedule: Q01DX005 (ip), vehicle: saline with Tween-80) of the same molecule?
**A.** The T/C was 195 % of control and 206 % of control.

**Q.** Which results are given for `ClCCN(CCCl)CC(Cl)COc1cccc2ccccc12` (stereo unspecified)?
**A.** T/C (dose: 0.62 mg/kg/injection, schedule: Q01DX009 (ip), vehicle: saline): 106 % of control and 108 % of control; T/C (dose: 1.25 mg/kg/injection, schedule: Q01DX009 (ip), vehicle: saline): 100 % of control and 108 % of control; T/C (dose: 2.5 mg/kg/injection, schedule: Q01DX009 (ip), vehicle: saline): 86 % of control and 97 % of control
